Assay results reported in PubChem BioAssay AID720513 (Broad Institute, 2013).
Results filed as inconclusive are left out.

What follows are compounds tested on U2OS PGC1a acetylation AlphaLISA, overnight (assay: PGC1a acetylation increase, cellular AlphaLISA – cell-based, cherry-picked samples, set 6, dose response (AID 720513);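 also: cells made to overexpress flag tagged PGC1a plus GCN5 acetyltransferase by viral infection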).

Row | Structure (SMILES) | AC40
1 | CC1CCCN(Cc2c(O)ccc3c(=O)c(-c4nc5ccccc5s4)c(N)oc23)C1 (stereo not given) | 5.03 µM
2 | O=C(NCc1cccs1)c1ccc(Cl)c(S(=O)(=O)N2CCCC2)c1 | 3.54 µM
3 | COCCCn1c(N)c(C(=O)Nc2ccccc2)c2nc3ccccc3nc21 | 1.18 µM
4 | C=CCS(=O)(=O)c1nc2ccccc2s1 | 2.99 µM
5 | CCOCCn1c(CN(Cc2ccccc2)Cc2ccccc2)nc2c1c(=O)n(C)c(=O)n2C | 6.65 µM
6 | Cc1ccc(/C(N)=N/OC(=O)c2ccco2)cc1 | 8.81 µM
7 | O=C(CN1CCC(n2nnc3cc(F)ccc32)CC1)Nc1ccc2c(c1)CCC2 | 2.71 µM
8 | Cc1ccc(Nc2nnc(C)c3ccccc23)c(C)c1 | 2.09 µM
9 | COc1cc(OC)c2c(-c3cccc(-c4cccc(C)c4)c3)cc(=O)oc2c1 | 1.56 µM
10 | O=C(Nc1ccc(-c2noc(-c3cccs3)n2)cc1)c1cccnc1 | 1.27 µM
11 | O=C(NC1CCCCC1)c1cccnc1C(=O)O | 3.2 µM
12 | CC(=O)C1=CCC(c2cccc3ccccc23)N(S(=O)(=O)c2ccc(C)cc2)C1 (stereo not given) | 18.7 µM
13 | O=C(NC(Nc1cc(C(F)(F)F)ccc1Cl)C(=O)c1ccccc1)c1ccccc1 (stereo not given) | 13.6 µM
14 | COC(=O)[C@H](Cc1ccccc1)N(C)S(=O)(=O)c1cccc(S(=O)(=O)N(C)[C@@H](Cc2ccccc2)C(=O)OC)c1 | 9.66 µM
15 | C[C@@H]1CN([C@H](C)CO)C(=O)c2cccc(NC(=O)c3ccc(-c4nccs4)cc3)c2O[C@@H]1CN(C)Cc1ccc(C(=O)Nc2ccccc2N)cc1 | < 0.16 µM
16 | CCOC(=O)C1=CC[C@@H](c2ccccc2)N(S(=O)(=O)c2ccc(C)cc2)[C@H]1c1ccc(CC)cc1 | 0.785 µM
17 | CC(C)(C)c1ccc(C(=O)Nc2ccc(C(=O)NCc3cccnc3)cc2)cc1 | < 0.16 µM
18 | CCOC(=O)C1(Cc2ccccc2)CCN(Cc2cccc(OC)c2O)CC1 | 6.65 µM
19 | CCOC(=O)c1c(NC(=O)c2ccoc2C)sc2c1CCC2 | 13.9 µM
20 | CCCCCOC(=O)Cc1c(O)c2ccccc2n(C)c1=O | 9.64 µM
21 | Cc1cccc(C(=O)Nc2ccc(C(=O)/C=C/c3cccnc3)cc2)c1 | 2.34 µM
22 | Cc1cc(N2CCC(C(N)=O)CC2)nc(-c2ccccc2)n1 | 3.95 µM
23 | c1ccc(-c2c(-c3ccccc3)n(Cc3ccco3)c3ncnc(NCCCn4ccnc4)c23)cc1 | 1.86 µM
24 | CCOC(=O)CC(S(=O)(=O)c1ccccc1)S(=O)(=O)c1ccccc1 | 4.09 µM
25 | COc1ccc(N(C(=O)c2csnn2)C(C(=O)NC2CCCC2)c2cccs2)cc1 (stereo not given) | 2.62 µM

Row | Structure (SMILES) | AC40
26 | CCN(CC)CCNC(=O)c1ccc2c(c1NCCO)C(=O)c1ccccc1C2=O | 14.6 µM
27 | O=C(Cc1ccccc1)Nc1ccc(NC(=O)c2cccs2)cc1 | 1.23 µM
28 | CCn1nc(C)c(CN2CCc3c([nH]c4ccccc34)C2C(C)(C)C)c1C (stereo not given) | 0.88 µM
29 | COc1cc(NC(=O)c2cccs2)c(OC)cc1NC(=O)CCC(=O)Nc1ccc2ncccc2c1 | 0.785 µM
30 | C[C@H](CO)N1C[C@H](C)[C@@H](CN(C)Cc2ccc3c(c2)OCO3)Oc2ccc(NC(=O)Nc3ccc4c(c3)OCO4)cc2CC1=O | 18.2 µM
31 | Cc1cc(C(=O)NNS(=O)(=O)c2ccc(F)cc2)nn1C(C)(C)C | 1.09 µM
32 | CC1(Cc2ccc(Cl)cc2)C(=O)Nc2c(Cl)ccc(Cl)c21 (stereo not given) | 4.52 µM
33 | Cc1ccccc1-c1ccc(C2[C@@H]3CN(S(=O)(=O)c4ccccc4C)C[C@H]2N3)cc1 (stereo not given in full) | 12.9 µM
34 | O=C(NCc1cccnc1)c1ccc(NC(=O)c2cccc([N+](=O)[O-])c2)cc1 | < 0.16 µM
35 | CC(C)C(OC(=O)c1cccs1)C(=O)NC1CCCCC1 (stereo not given) | 2.58 µM
36 | COc1ccc(NC(=O)N(C)C[C@H]2OCc3ccccc3-c3c(n(C)c4ccccc34)C(=O)N([C@@H](C)CO)C[C@H]2C)c(OC)c1 | 3.5 µM
37 | CC(NS(=O)(=O)c1ccccc1Cl)C1CC2CCC1C2 (stereo not given) | 0.415 µM
38 | CC1CCCCN1C(=O)/C(=C\c1ccccc1)c1ccccc1 (stereo not given) | 8.57 µM
39 | Cc1sc(NC(=O)c2cccs2)nc1-c1ccccc1 | 0.581 µM
40 | CSc1nc(NCc2ccco2)c2ccccc2n1 | 13.6 µM
41 | C/C=C(/C)C(=O)O[C@@H]1c2cc(OC)c(OC)c(OC)c2-c2c(cc3c(c2OC)OCO3)C[C@H](C)[C@]1(C)O | 1.48 µM
42 | Cc1cccc(OC2(c3ccccc3)OC(=O)c3ccccc32)c1C (stereo not given) | 3.37 µM
43 | CC(=O)Nc1ccc(NC(=O)CN(c2cccc([N+](=O)[O-])c2)S(C)(=O)=O)cc1 | 0.482 µM
44 | CC1(Cc2ccc(Cl)s2)C(=O)Nc2c(Cl)ccc(Cl)c21 (stereo not given) | 11.3 µM
45 | COc1ccc(C#Cc2c(-c3ccccc3)n(-c3ccccc3)c3ccc(CO)cc23)cc1 | 2.19 µM
46 | Nc1c(C(=O)c2ccccc2)sc2nsc(SCCN3CCCC3)c12 | 9.72 µM
47 | Cc1ccc(S(=O)(=O)N(Cc2ccc(F)cc2)Cc2ccco2)cc1 | 6.76 µM
48 | Cc1ccccc1Cn1cc(NC(=O)c2cc(-c3cccs3)on2)cn1 | 1.32 µM
49 | O=C(Nc1ccc(F)cc1F)N1CCCN(c2ccc([N+](=O)[O-])cn2)CC1 | 3.36 µM
50 | COc1ccccc1-c1ccc(C2[C@@H]3CN(Cc4cccc(F)c4)C[C@H]2N3)cc1 (stereo not given in full) | 7.21 µM

Row | Structure (SMILES) | AC40
51 | Cc1c(OCc2ccc(C(=O)O)cc2)ccc2c(-c3ccccc3)cc(=O)oc12 | 7.28 µM
52 | CCN(CC)S(=O)(=O)c1c(Br)cc(C)cc1Br | 1.29 µM
53 | CC(C)(C)n1nnnc1C(CCc1ccccc1)N1CCC2(CC1)C(=O)NCN2c1ccccc1 (stereo not given) | 5.44 µM
54 | Nc1c(C(=O)Nc2ccccc2)c2nc3ccccc3nc2n1CCCN1CCOCC1 | 4.85 µM
55 | C[C@H]1CN([C@@H](C)CO)C(=O)c2cccc(NC(=O)Nc3cccc4ccccc34)c2O[C@H]1CN(C)Cc1ccc(C(=O)Nc2ccccc2N)cc1 | 7.53 µM
56 | Cc1ccc(S(=O)(=O)Nc2ccc3c(c2)C(=O)N([C@@H](C)CO)C[C@@H](C)[C@H](CN(C)C(=O)Nc2cccc4ccccc24)OCCCC[C@H](C)O3)cc1 | 3.83 µM
57 | CC(=O)c1cccc(N(C(=O)c2cnccn2)C(C(=O)NCc2ccccc2)c2ccco2)c1 (stereo not given) | 1.39 µM
58 | OC(c1ccccc1)(C1CCCCC1)C(CN1CCOCC1)c1ccccc1 (stereo not given) | 0.634 µM
59 | O=C(COCc1cc(-c2ccc3c(c2)OCO3)on1)Nc1cccnc1 | 0.458 µM
60 | COc1cc(CN2[C@@H]3CNC[C@H]2C3c2ccc(-c3ccccc3)cc2)cc(OC)c1 (stereo not given in full) | 18.3 µM
61 | Cc1cccc(-c2ccc(C3[C@@H]4CN(C(=O)C5CCCCC5)C[C@H]3N4)cc2)c1 (stereo not given in full) | 6.09 µM
62 | O=C(Cc1ccc(Cl)cc1)c1c[nH]c(C(=O)NCc2cccnc2)c1 | 3.56 µM
63 | O=C1NC(=Nc2ccccc2Cl)S/C1=C\c1cccc([N+](=O)[O-])c1O | 10.6 µM
64 | Cc1cc(Cn2nc(C(=O)NCc3cccc(C(F)(F)F)c3)cc2-c2ccccc2)on1 | 5.81 µM
65 | O=S(=O)(c1cccc(F)c1)N1CCN(Cc2cc3c(cc2Br)OCCO3)CC1 | 0.411 µM
66 | CN1CCN(C(=O)CSc2nc(-c3cccs3)cc(-c3cccs3)c2C#N)CC1 | 2.77 µM
67 | CCOc1ccc(S(=O)(=O)N2c3ccccc3CC2C)cc1 (stereo not given) | 11.5 µM
68 | Cc1ccc2oc(-c3ccc(NC(=O)c4cccnc4)cc3)nc2c1 | 2.03 µM
69 | CCOCCn1c(CN(Cc2ccccc2)Cc2ccccc2)nc2c1c(=O)[nH]c(=O)n2C | 5.12 µM
70 | CCCc1cc2c(cc1N(C)S(=O)(=O)c1ccccc1)OCO2 | 2.96 µM
71 | COc1cccc(CN2C[C@@H]3N[C@H](C2)C3c2ccc(-c3cccc(C#N)c3)cc2)c1 (stereo not given in full) | 10 µM
72 | CN(C(=O)C1CC1)C1CCS(=O)(=O)C1 (stereo not given) | 15.2 µM
73 | O=C(NN1c2ccccc2CCc2ccccc21)c1ccccc1Br | 4.84 µM
74 | CSCCC(c1nnnn1-c1c(C)cccc1C)N1CCC2(CC1)C(=O)NCN2c1ccccc1 (stereo not given) | 4.64 µM
75 | CCOC(=S)SCC(=O)Nc1nc(C)c(C)s1 | 3.58 µM
